Assays:
[1] = test system: KB-V1 adenocarcinoma cell line; assay: MTT cytotoxicity assay, P-gp (MDR1) expressing KB-V1 cells; MDR1 selectivity vs KB-3-1; type: cell-based, human; conditions: for IC50: MTT, 72 hours; for MDR1 select. / MDR1 selectivity: ratio of IC50 against KB-3-1 divided by IC50 against KB-V1; for MDR1 selectivity: >1 = MDR1-inverse activity; for MDR1-inverse selectivity (in words): Example 3, Table 1, KB-V1 vs KB-3-1
Protocol: (§1) Exemplary compounds were also tested against the KB-V1 adenocarcinoma cell line that expresses high levels of P-gp (the protein product of MDR1). […] MDR1 selectivity is determined by the ratio of IC50 against KB-3-1 cells divided by its IC50 against KB-V1 cells.
(§2) This example describes evaluation of compounds using the MTT cytotoxicity assay. Cell survival was measured by the MTT (3-(4,5-dimethylthiazol-2-yl)-2,5-diphenyltetrazolium bromide) assay as previously described by Ludwig, J. A. et al. Selective toxicity of NSC73306 in MDR1-positive cells as a new strategy to circumvent multidrug resistance in cancer. […] Briefly, cells were seeded in […] of growth medium at a density of 5000 cells/well in 96-well plates and allowed to establish for 24 hours, at which time serially diluted drugs were added in an additional […] growth medium. Cells were then incubated for 72 hours at 37° C. in humidified 5% CO2, at which time the growth media was drawn, and replaced with MTT in IMDM growth media and incubated for 4 hours. The MTT solution was then drawn from the wells, and […] acidified ethanol solution was added to each well and after 15 minutes absorption at 560 nm was measured.

[2] = test system: KB-3-1 adenocarcinoma cells; assay: MTT cytotoxicity assay, parental P-gp-negative KB-3-1 cells; type: cell-based, human
Protocol: as §1, §2

[3] = Table 2, 72 hours, unit inferred
[4] = Homo sapiens, Table 1, KB-V1 (high P-gp)
[5] = Homo sapiens, Table 1, 72 hours, KB-3-1 (P-gp-negative)
[6] = Homo sapiens, KB-V1, Table 2, unit inferred
[7] = Homo sapiens, KB 3-1, Table 2, 72 hours, unit inferred

SMILES	IC50 ([1]; Table 2, unit inferred) [µM]	MDR1 select. ([1]; Table 2)	IC50 [2, 3] [µM]	IC50 [1, 4] [µM]	IC50 [2, 5] [µM]	further results
O=C1Nc2ccccc2C1=NNC(=S)Nc1cccc2ccccc12 [Compound M20, 1-isatin-4-(1′-napthyl)-3-thiosemicarbazone]	2.21	2.32	5.12	–	–	–
COc1ccc(NC(=S)N/N=C2\CCc3ccccc32)cc1	–	–	–	> 50	> 50	–
O=C1Nc2ccccc2C1=NNC(=S)Nc1ccc(C(=O)O)cc1 [Compound M19, 1-isatin-4-(4′-carboxyphenyl)-3-thiosemicarbazone]	> 50	1.00	> 50	–	–	–
COc1ccc(NC(=S)N/N=C2\C(=O)N(C)c3ccccc32)cc1 [drawing 35]	–	–	–	9.3 ± 2.8	19.6 ± 1.7	MDR1 selectivity ([1]; Table 1): 2.1
O=C1Nc2ccccc2C1=NNC(=S)Nc1ccc(Oc2ccccc2)cc1 [Compound M21, 1-Isatin-4-(4-phenoxybenzene)-3-thiosemicarbazone]	1.67	3.44	5.72	–	–	–
O=C1Nc2ccccc2C1=NNC(=S)NC12CC3CC(CC(C3)C1)C2 [Compound M22, 1-isatin-4-(1′-adamantyl)-3-thiosemicarbazone]	1.02	3.09	3.16	–	–	–
CC(=O)Nc1ccc(/C=N/NC(N)=S)cc1	–	–	–	> 50	> 50	–
O=C1Nc2ccccc2C1=NNC(=S)Nc1ccc(Cl)cc1 [Compound M12, 1-Isatin-(4′-chlorophenyl)-3-thiosemicarbazone]	4.99	2.68	13.4	–	–	–
COc1cc(NC(=S)NN=C2C(=O)Nc3ccccc32)cc(OC)c1OC [Compound M23, 1-isatin-4-(3′,4′,5′-trimethoxyphenyl)-3-thiosemicarbazone]	3.49	3.18	11.1	–	–	–
O=C1Nc2ccccc2C1=NNC(=S)Nc1ccccc1Cl [Compound M5, 1-Isatin-(2′-chlorophenyl)-3-thiosemicarbazone]	1.17	1.89	2.22	–	–	–
COc1ccc(NC(=S)N/N=C2\C(=O)Nc3c2ccc2ccccc32)cc1	–	–	–	30.3 ± 5.9	4.4 ± 3.6	MDR1 selectivity ([1]; Table 1): 0.1
COc1ccc(NC(=S)NN=C2C(=O)Nc3ccccc32)cc1 [NSC73306, 1-Isatin-4-(4′ methoxyphenyl)thiosemicarbazone, reference compound]	3.3	4.3	14.2	–	–	MDR1-inverse selectivity (in words) [1]: MDR1-inverse selectivity
CC(C)NC(=S)NN=C1C(=O)Nc2ccccc21 [Compound M15, 1-Isatin-4-isopropyl-3-thiosemicarbazone]	10.2	3.84	39.4	–	–	–
O=C1Nc2ccccc2C1=O	–	–	–	> 50	> 50	–
NC(=S)N/N=C1\C(=O)Nc2ccccc21	–	–	–	> 50	> 50	–
COc1ccc(NC(=S)N/N=C/c2ccc(NC(C)=O)cc2)cc1	–	–	–	> 50	> 50	–
O=C1Nc2ccc(Br)cc2/C1=N/NC(=S)Nc1ccc(F)cc1 [drawing 22]	–	–	–	5.8 ± 2.5	13.1 ± 4.8	MDR1 selectivity ([1]; Table 1): 2.3
C=CCNC(=S)N/N=C1\C(=O)Nc2ccccc21 [drawing 40]	–	–	–	20.7 ± 7.7	26.1 ± 2.6	MDR1 selectivity ([1]; Table 1): 1.3
O=C1Nc2ccccc2C1=NNC(=S)Nc1ccccc1 [Compound M8, 1-Isatin-(phenyl)-3-thiosemicarbazone]	1.47	2.40	3.53	–	–	–
O=C1Nc2ccc([N+](=O)[O-])cc2C1=NNC(=S)Nc1ccccc1 [NSC716766, 1-(5′-Nitroisatin)-4-phenyl-3-thiosemicarbazone]	–	–	–	–	–	MDR1-inverse selectivity (in words) [1]: MDR1-inverse selectivity
O=C1Nc2ccc(Br)cc2/C1=N/NC(=S)Nc1ccc([N+](=O)[O-])cc1 [NSC716772, 1-(5′-Bromoisatin)-4-(4′-nitrophenyl)-3-thiosemicarbazone]	–	–	–	–	–	MDR1-inverse selectivity (in words) [1]: MDR1-inverse selectivity
O=C1Nc2ccc(F)cc2/C1=N/NC(=S)Nc1ccc(F)cc1 [Compound M10, 1-(5′-fluoroisatin)-4-(4′-fluorophenyl)-3-thiosemicarbazone]	–	4.07	–	–	–	IC50 [1, 6]: 0.91 µM; IC50 [2, 7]: 3.72 µM
Cc1cnc(/C=N/NC(N)=S)c2cccc(N)c12	–	–	–	2.1 ± 0.3	1.9 ± 0.8	MDR1 selectivity ([1]; Table 1): 0.9
COc1ccc(NC(=O)N/N=C2\C(=O)Nc3ccccc32)cc1	–	–	–	> 50	27.7 ± 3.3	–

SMILES	IC50 ([1]; Table 2, unit inferred) [µM]	MDR1 select. ([1]; Table 2)	IC50 [2, 3] [µM]	IC50 [1, 4] [µM]	IC50 [2, 5] [µM]	further results
COc1ccc(NC(=S)N/N=C/c2ccccn2)cc1 [Compound 10, 1-(2′-Pyridinecarboxaldehyde)-4-(4′-methoxyphenyl)-3-thiosemicarbazone]	–	–	–	–	–	MDR1-inverse selectivity (in words) [1]: MDR1-inverse selectivity
COc1ccc(NC(=S)NN=C2Cc3ccccc3C2)cc1	–	–	–	> 50	> 50	–
NC(=S)N/N=C/c1ncccc1N	–	–	–	5.9 ± 2.6	1.4 ± 2.5	MDR1 selectivity ([1]; Table 1): 0.2
O=C1Nc2ccccc2C1=NNC(=S)NC1CCCCC1 [Compound M2, 1-Isatin 4-cyclohexyl-3-thiosemicarbazone]	4.38	2.09	9.14	–	–	–
COc1ccc(NC(=S)N/N=C2\C(=O)Nc3ccc(F)cc32)cc1 [Compound 7, 1-(5′-Fluoroisatin)-4-(4′-methoxyphenyl)-3-thiosemicarbazone]	–	–	–	–	–	MDR1-inverse selectivity (in words) [1]: MDR1-inverse selectivity
COc1ccc(NC(=S)N/N=C2\C(=O)Nc3ccc([N+](=O)[O-])cc32)cc1 [Compound 12, 1-(5′-Nitroisatin)-4-(4′-methoxyphenyl)-3-thiosemicarbazone]	–	–	–	–	–	MDR1-inverse selectivity (in words) [1]: MDR1-inverse selectivity
COc1ccccc1NC(=S)NN=C1C(=O)Nc2ccccc21 [Compound M18, 1-isatin-4-(2′-methoxyphenyl)-3-thiosemicarbazone]	2.69	1.84	4.96	–	–	–
CNC(=S)NN=C1C(=O)Nc2ccccc21 [Compound M1, 1-Isatin-4-methyl-3-thiosemicarbazone]	19.4	1.82	35.3	–	–	–
C=CCNC(=S)N/N=C1\C(=O)Nc2ccccc21 [Compound 13, 1-Isatin-4-allyl-3-thiosemicarbazone]	–	–	–	–	–	MDR1-inverse selectivity (in words) [1]: MDR1-inverse selectivity
O=C1Nc2ccccc2C1=NNC(=S)Nc1ccc(O)cc1 [Compound M4, 1-Isatin-(4′-hydroxyphenyl)-3-thiosemicarbazone]	21.6	1.66	35.8	–	–	–
COc1ccc(NC(=S)N/N=C2\C(=O)N(C)c3ccccc32)cc1 [Compound 8, 1-(N-methylisatin)-4-(4′-methoxyphenyl)-3-thiosemicarbazone]	–	–	–	–	–	MDR1-inverse selectivity (in words) [1]: MDR1-inverse selectivity
COc1ccc(NC(=S)N/N=C2\C(=O)Nc3ccc(S(=O)(=O)O)cc32)cc1	–	–	–	> 50	> 50	–
COc1ccc(NC(=S)N/N=C/c2ccccn2)cc1 [drawing 37]	–	–	–	2.4 ± 0.5	3.4 ± 1.5	MDR1 selectivity ([1]; Table 1): 1.4
O=C1Nc2ccc(Br)cc2/C1=N/NC(=S)Nc1ccc([N+](=O)[O-])cc1 [drawing 23]	–	–	–	4 ± 0.6	28.4 ± 5.2	MDR1 selectivity ([1]; Table 1): 7.1
O=C1Nc2ccccc2/C1=N/NC(=S)Nc1ccc(F)cc1 [Compound M14, 1-Isatin-4-(4′-fluorophenyl)thiosemicarbazone]	–	7.36	–	–	–	IC50 [1, 6]: 1.92 µM; IC50 [2, 7]: 14.2 µM
COc1ccc(NC(=S)N/N=C2\C(=O)Nc3ccc(F)cc32)cc1 [drawing 34]	–	–	–	5.2 ± 1.1	39.3 ± 23.3	MDR1 selectivity ([1]; Table 1): 7.5
COc1ccc(NC(=S)N/N=C2\C(=O)Nc3ccc([N+](=O)[O-])cc32)cc1 [drawing 39]	–	–	–	6.7 ± 2.9	26.3 ± 5.5	MDR1 selectivity ([1]; Table 1): 4.0
NC(=O)N/N=C1\C(=O)Nc2ccccc21	–	–	–	> 50	> 50	–
O=C1Nc2ccc(Br)cc2/C1=N/NC(=S)Nc1ccc(F)cc1 [NSC716771, 1-(5′-Bromoisatin)-4-(4′-fluorophenyl)-3-thiosemicarbazone]	–	–	–	–	–	MDR1-inverse selectivity (in words) [1]: MDR1-inverse selectivity
CCCCNC(=S)NN=C1C(=O)Nc2ccccc21 [Compound M11, 1-Isatin-4-butyl-3-thiosemicarbazone]	5.69	1.91	10.9	–	–	–
O=C1Nc2ccccc2/C1=N/NC(=S)Nc1ccc([N+](=O)[O-])cc1 [Compound M17, 1-Isatin-4-(4′-nitrophenyl)thiosemicarbazone]	–	8.27	–	–	–	IC50 [1, 6]: 2.07 µM; IC50 [2, 7]: 17.2 µM
Cc1ccc(NC(=S)N/N=C2\C(=O)Nc3ccccc32)cc1 [Compound M16, 1-Isatin-4-(4′-methylphenyl)thiosemicarbazone]	–	9.23	–	–	–	IC50 [1, 6]: 2.6 µM; IC50 [2, 7]: 24 µM
COc1ccc(NC(=S)NN)cc1	–	–	–	> 50	> 50	–
